Experimental data: PMC5668434, “Modulation of telomere protection by the PI3K/AKT pathway” (Nature Communications, 2017)

What was measured:
PI3Kβ = details: reported in literature; cited from earlier work
PI3Kγ = details: reported in literature; cited from earlier work
PI3Kδ = details: reported in literature; cited from earlier work
[1] = test system: telomeric TRF1 in ER/Her2-positive breast cancer PDXs; test: Telomeric TRF1 foci (immuno-FISH) in breast cancer PDXs; assay type: in vivo, mouse; details: BYL719 35 mg/kg QD 6 days/week, 12 days
Protocol: (§1) To this end, we generated PDXs from seven independent ER/Her2-positive breast cancer patients in female athymic NMRI nu/nu mice, and treated these with either the PI3Kα specific inhibitor BYL719 (35 mg/k 6IW) or with vehicle during a total of 12 days. Mice were then killed and PDXs extracted and formalin fixed for further analysis. A TRF1 immunofluorescence followed by a telomere quantitative q-FISH was performed in PDXs sections to identify TRF1 specifically located at telomeres by co-localization of TRF1 protein to telomeric DNA, as well as to quantify telomere length. […] Immunohistochemistry staining of phosphorylated AKT (S473) in these same PDXs followed by quantification of tumor positive area was performed to address the efficacy of BYL719 treatment (Fig. 8c, d). […]
(§2) An immune-Fish was performed in formalin-fixed paraffin-embedded PDXs sections to identify telomeric TRF1 and quantify telomere length. TRF1 foci were detected by immunofluorescence as described above. Quantitative FISH was performed as follows: samples were permeabilized for 2 h in PBS-5% Triton, blocked for 1 h with 5% BSA in PBS, and immunofluorescence with TRF1 homemade rat TRF1 antibody diluted 1:500 was performed. […] Maximal projection of Z-stack images generated using advanced fluorescence software (LAS) was analyzed with the Definiens XD software package. […]

[2] = test system: TRF1 foci in CHA-9.3 mouse lung tumor cell line; test: TRF1 foci immunofluorescence in CHA-9.3 cells; assay type: cell-based; details: Mus musculus; 10 μM; 24 h; CHA-9.3; relative to DMSO; read-out: Inhibition of TRF1 foci fluorescence
Protocol: TRF1 immunofluorescence of TRF1 was performed in lung tumor-derived cell line (CHA9.3) and in MEFs[39]. A rat monoclonal antibody against mouse TRF1 developed by the Monoclonal antibody unit at CNIO was used to detect endogenous TRF1 (1:500). GFP-TRF1 fluorescence was directly measured in cells fixed in paraformaldehyde. For quantification of TRF1 foci intensity, pictures of fixed cells were automatically acquired from each well by the Opera HCS system (Perkin Elmer). Sixty images of random fields per well, with a 40× magnification lens, were taken under non-saturating conditions. At least 1 × 10^3 cells were analyzed for each well. Briefly, images were segmented using the DAPI staining to generate masks matching cell nuclei from which-TRF1 foci were analyzed.

mTOR (FRAP1) = target: T1, mTOR (FRAP1) (Homo sapiens, UniProt P42345); test: mTOR biochemical assay (LanthaScreen); details: as given in the text
T1 construct: purchased ThermoFisher PV4753
T1 sequence (P42345 1360-2549 limits assumed): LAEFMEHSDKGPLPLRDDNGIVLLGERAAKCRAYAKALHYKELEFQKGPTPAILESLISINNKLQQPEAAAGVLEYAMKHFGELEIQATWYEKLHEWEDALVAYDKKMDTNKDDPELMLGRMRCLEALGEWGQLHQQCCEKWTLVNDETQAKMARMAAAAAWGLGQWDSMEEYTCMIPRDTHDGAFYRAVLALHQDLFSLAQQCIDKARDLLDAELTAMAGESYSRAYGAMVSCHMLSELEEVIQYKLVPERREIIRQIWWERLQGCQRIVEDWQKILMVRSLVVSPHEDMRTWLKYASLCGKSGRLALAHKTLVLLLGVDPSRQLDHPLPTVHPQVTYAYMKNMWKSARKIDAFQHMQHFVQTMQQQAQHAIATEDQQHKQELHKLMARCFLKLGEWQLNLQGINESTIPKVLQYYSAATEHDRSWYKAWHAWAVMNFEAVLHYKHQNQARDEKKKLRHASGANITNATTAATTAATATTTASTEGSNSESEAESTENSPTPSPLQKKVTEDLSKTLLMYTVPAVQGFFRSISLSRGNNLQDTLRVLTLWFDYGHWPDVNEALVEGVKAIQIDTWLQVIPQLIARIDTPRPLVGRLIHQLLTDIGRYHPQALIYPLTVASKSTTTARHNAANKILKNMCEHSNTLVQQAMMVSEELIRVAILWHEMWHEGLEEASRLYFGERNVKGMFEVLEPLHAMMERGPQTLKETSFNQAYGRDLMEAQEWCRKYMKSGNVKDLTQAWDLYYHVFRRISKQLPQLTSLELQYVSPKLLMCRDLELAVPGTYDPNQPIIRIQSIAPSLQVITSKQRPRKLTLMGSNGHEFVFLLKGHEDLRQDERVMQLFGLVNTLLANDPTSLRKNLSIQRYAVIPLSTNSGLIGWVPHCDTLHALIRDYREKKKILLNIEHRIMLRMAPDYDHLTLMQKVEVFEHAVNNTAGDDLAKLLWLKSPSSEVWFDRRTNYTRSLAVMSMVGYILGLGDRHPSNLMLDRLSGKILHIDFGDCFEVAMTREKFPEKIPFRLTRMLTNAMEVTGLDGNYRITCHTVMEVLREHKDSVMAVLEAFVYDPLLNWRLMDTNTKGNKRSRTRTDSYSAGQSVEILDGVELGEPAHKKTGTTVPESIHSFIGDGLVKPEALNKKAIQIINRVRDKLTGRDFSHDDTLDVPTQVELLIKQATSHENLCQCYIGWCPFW

mTOR = details: reported in literature; cited from earlier work
[3] = test system: ER/Her2-positive breast cancer PDXs; test: Mean telomere length by Q-FISH in PDXs; assay type: in vivo, mouse; details: seven PDXs; 12 days
Protocol: as §1, §2

[4] = test system: ER/Her2-positive breast cancer PDXs; test: γH2AX and telomere-induced foci (TIFs) in PDXs; assay type: in vivo, mouse; details: 12 days
Protocol: We also observed a higher number of telomere-induced DNA damage foci (TIFs) in the BYL719-treated “responder” tumors than in the “non-responders” (Fig. 8h, i), in agreement with lower levels of telomere bound TRF1 levels in the “responders” (Fig. 8b, d).
Formalin-fixed paraffin-embedded PDXs sections were permeabilized with 0.5% PBS-Triton for 1 h and blocked first with fetal bovine serum for 2 h and then in 5% BSA for 2 h. Samples were incubated O/N at 4 °C with the primary antibody. Antibodies used were anti-TRF1 (1:200) (TRF-78, ABCAM, ab10579), anti-RAP1 (1:300) (Bethyl Laboratories, A300-306A), and anti-phospho-histone2 H2AX-Ser139 (γH2AX) (1:300) (Millipore, 05-636). Slides were further incubated with 488-Alexa or 555-Alexa labeled secondary antibodies. Nuclei were counterstained in a 4 µg/ml 4′,6-[…]-2-phenylindole (DAPI)/PBS solution before mounting with Vectashield.

[5] = test system: pAKT (S473) in ER/Her2-positive breast cancer PDXs; test: pAKT (S473) immunohistochemistry in breast cancer PDXs; assay type: in vivo, mouse; details: 12 days
Protocol: To this end, we generated PDXs from seven independent ER/Her2-positive breast cancer patients in female athymic NMRI nu/nu mice, and treated these with either the PI3Kα specific inhibitor BYL719 (35 mg/k 6IW) or with vehicle during a total of 12 days. Mice were then killed and PDXs extracted and formalin fixed for further analysis. A TRF1 immunofluorescence followed by a telomere quantitative q-FISH was performed in PDXs sections to identify TRF1 specifically located at telomeres by co-localization of TRF1 protein to telomeric DNA, as well as to quantify telomere length. Telomeric TRF1 foci at telomeres (green spots) were unequivocally identified by co-localization with telomeric PNA probe (red spots) (Fig. 8a). […] Immunohistochemistry staining of phosphorylated AKT (S473) in these same PDXs followed by quantification of tumor positive area was performed to address the efficacy of BYL719 treatment (Fig. 8c, d). […] These four PDXs were considered as “responders” to the PI3Kαi treatment. […] This unexpected increase in pAKT levels of PDX191 upon BYL719 treatment could be explained by the activation of regulatory feedback loops that trigger compensatory signaling events leading to activation of the AKT pathway. These three PDX (PDX131, PDX39, PDX191) were considered as “non-responders” to the treatment with the PI3Kα inhibitor BYL719. […] It should be pointed out that untreated PDX131 and PDX39 that presented undetectable pAKT levels correspond to those samples with the lowest telomeric TRF1 levels (Fig. 8b, d). […] In addition, the telomere length changes were more moderate as compared to changes observed in TRF1 levels.
Experiments were conducted following the European Union’s animal care directive (86/609/EEC) and were approved by the Ethical Committee of Animal Experimentation of the Vall d’Hebron Research Institute and patient consent. Fresh primary or metastatic human breast tumors were obtained from patients at time of surgery or biopsy. […]

PI3Kα = details: reported in literature; cited from earlier work

Cc1nc(NC(=O)N2CCC[C@H]2C(N)=O)sc1-c1ccnc(C(C)(C)C(F)(F)F)c1 [BYL-719]
IC50 (PI3Kβ): 1200 nM
IC50 (PI3Kγ): 250 nM
IC50 (PI3Kδ): 290 nM
Telomeric TRF1 levels vs vehicle (in words) ([1]; PDX98): remained unchanged
Telomeric TRF1 spot intensity, percent change vs vehicle (↑ increase) ([1]; PDX191): 80%
inhibition at 10 µM [2]: 30%
IC50 (mTOR (FRAP1)): > 10000 nM
IC50 (mTOR): > 9100 nM
Mean telomere length upon treatment (in words) [3]: moderate but significant changes
Telomere-induced DNA damage foci (TIFs), responders vs non-responders ([4]; BYL719-treated PDXs): higher number
Cells presenting DNA damage (γH2AX positive cells) ([4]; responder PDXs): significant increase
pAKT levels upon treatment (in words) ([5]; PDX39 (negative for pAKT at basal levels)): remained unchanged
pAKT levels upon treatment (in words) ([5]; PDX131 (negative for pAKT at basal levels)): remained unchanged
pAKT (S473) positive tumor area, percent change vs vehicle (↑ increase) ([5]; PDX191, BYL719 35 mg/kg QD 6 days/week): 46%
